Here are results for seven molecules from US20240383906A1, “5-SUBSTITUTED PYRIDINE-2(1H)-KETONE COMPOUND AND USE THEREOF” (JIANGSU KANION PHARMACEUTICAL CO., LTD., priority 2021, published 2024).

Data set [1] concerns WNT pathway STF reporter gene. Kind of data set: Super-Top-Flash (STF) reporter gene inhibitory activity test. In kind it is cell-based. The note with it: HEK293 STF and L wnt3A cells 1:1, 24 hours, Bright-Glo. As to the method: HEK293 STF and L wnt3A cells were provided by Wuhan Heyan Biomedical Technology Co., Ltd., and Bright Glo was purchased from Promega.
• HEK293 STF and L wnt3A cells were seeded in a white 96-well plate at a ratio of 1:1, with 80 μL of cell suspension per well, each containing 20,000 HEK293 STF cells and 20,000 L wnt3A cells. The cell plate was placed in a carbon dioxide incubator for overnight culture.
The test compounds were 5-fold diluted with a multi-channel pipette to the 8th concentration, i.e., diluted from 400 μM to 5.12 nM, and duplicate experiment was set. 78 μL of culture medium was added to an intermediate plate, and then 2 μL of gradient diluted compound per well was transferred to the intermediate plate according to the corresponding position. After mixing well, the compound was transferred to the cell plate at 20 μL per well. The cell plate was placed in a carbon dioxide incubator and cultured for 24 hours.
100 μL of Promega Bright-Glo reagent was added to each well of the cell plate, and it was incubated at room temperature for 10 minutes to stabilize the luminescent signal. A multimode microplate reader was used for reading.
Using the raw data from the multimode microplate reader, the IC50 value could be obtained through curve fitting. Table 10 provides the data on the inhibitory activity of the compounds of the present disclosure on the Wnt signaling pathway.
Background: Reporter assays use an easily measured gene product as a stand-in for the process of interest.

Data set [2] has as its system Capan-2 cells. The experiment in a line: Capan-2 cell anti-proliferative activity test. Conditions: Homo sapiens, Capan-2, 120 h; 5 days, CellTiter-Glo. In kind it is cell-based. As to the method: Capan-2 cells were provided by Wuhan Heyan Biomedical Technology Co., Ltd., and CellTiter-Glo was purchased from Promega.
Capan-2 cells were seeded in a white 96-well plate, with 80 μL of cell suspension per well, each containing 5,000 Capan-2 cells. The cell plate was placed in a carbon dioxide incubator for overnight culture.
The test compounds were 3-fold diluted with a multi-channel pipette to the 9th concentration, i.e., diluted from 200 μM to 30 nM, and duplicate experiment was set. 78 μL of culture medium was added to an intermediate plate, and then 2 μL of gradient diluted compound per well was transferred to the intermediate plate according to the corresponding position. After mixing well, the compound was transferred to the cell plate at 20 μL per well. The cell plate was placed in a carbon dioxide incubator and cultured for 5 days. Another cell plate was prepared, and the signal value was read on the day of drug administration to serve as the maximum value (Max value in the equation below) for data analysis. 25 μL of cell viability chemiluminescence detection reagent was added to each well of this cell plate, and it was incubated at room temperature for 10 minutes to stabilize the luminescent signal. A multimode microplate reader was used for reading.
After the cell plate was cultured for 5 days, 25 μL of Promega CellTiter-Glo reagent was added to each well of the cell plate, and it was incubated at room temperature for 10 minutes to stabilize the luminescent signal. A multimode microplate reader was used for reading.
The IC50 value could be obtained through curve fitting, and the results of the inhibitory activity of the compounds of the present disclosure on the proliferation of Capan-2 cells are shown in Table 11.
A general note: In ATP-based viability assays light output follows the ATP content of the culture.

Data set [3] in a line: Solvent pre-stability of crystal form A (suspension stirring, XRPD). The note with it: for Crystal form after suspension in solvent (XRPD): stirred overnight at 25° C. The format is physicochemical. As to the method: (To ensure maximum suspension of the sample, the amount of compound and solvent was adjusted during the experiment based on the observed phenomena, and even the container used for the experiment was changed if necessary.) After adding a magneton, the suspension sample was placed on a magnetic heating stirrer (25° C.) for testing. After stirring overnight at 25° C., the suspension sample was filtered, and the solid sample on the filter cake was placed in a vacuum drying oven (45° C.) to dry overnight. The crystal form of the solid was obtained by X-ray powder diffraction (XRPD) detection.

Data set [4] can be described thus: Hygroscopicity of crystal form A (DVS). In kind it is physicochemical. The method, then:
• SMS DVS intrinsic dynamic vapor sorption instrument
Note: ΔW % represents the increase in weight due to moisture absorption of the test sample at 25±1° C. and 80±2% RH.

A short description of data set [5]: Solid pre-stability test of crystal form A (high temperature, high humidity, light; XRPD). In kind it is physicochemical. The method, then:
The sample placed under high temperature (60° C.) and high humidity (relative humidity 92.5% RH) conditions was sealed with aluminum foil to seal the mouth of the vial, and small holes were made in the aluminum foil to ensure that the sample could fully contact the ambient air, and it was placed in the corresponding constant temperature and humidity box. The light sample (open, not covered with aluminum foil) and the light control sample (the entire sample vial was covered with aluminum foil) were placed in the light box. At each time point, two samples were weighed separately as official test samples. […] The sample vial was wrapped with aluminum foil and small holes were made, and it was also placed in the corresponding constant temperature and humidity box. The sample was taken for testing (XRPD) on days 5 and 10, and the test results were compared with the initial test results on day 0.

Each structure is given as a SMILES string.

A word on the IC50: it is the midpoint of a concentration-inhibition curve.

Turning to `Cn1cc(-c2ccc(CNc3ncnn4c(-c5cncc(F)c5)ccc34)cn2)ccc1=O` [Compound 1], the IC50 in data set [1] was 0.00841 µM; in data set [2] it was 0.00609 µM.
In turn, `Cn1cc(-c2cnc(CNc3nccn4c(-c5cncc(F)c5)cnc34)cn2)ccc1=O` [Compound 3] returned an IC50 in data set [2] of 0.028 µM.
The molecule `Cn1cc(-c2ccc(CNc3nccn4c(-c5cncc(F)c5)cnc34)cn2)ccc1=O` [Compound 4] came in with an IC50 in data set [2] of 0.0246 µM.
On the same count and under the same terms, next, `Cn1cc(-c2ccc(CNc3nccc4c3ncn4-c3cncc(F)c3)cn2)ccc1=O` [Compound 5]: 0.0117 µM; `Cn1cc(-c2ccc(CNc3nccn4c(-c5cncc(F)c5)cnc34)cc2)ccc1=O` [Compound 6]: 0.0222 µM.
On the same count and under the same terms, next, `Cn1cc(-c2ccc(CNc3nccc4c3ncn4-c3ccccc3)cn2)ccc1=O` [Compound 7]: 0.00594 µM.
As for `Cn1cc(-c2cnc(CNc3nccn4c(-c5cc(F)cc(F)c5)cnc34)cn2)ccc1=O` [crystal form A of compound 2], the “Crystal form after suspension in solvent (XRPD)” value (“Crystal form after suspension” below) in data set [3] (2-Methyltetrahydrofuran), in data set [3] (Acetone), in data set [3] (Acetone:water (2:1)), in data set [3] (Acetonitrile), in data set [3] (Dioxane) and in data set [3] (Ethanol) was “Crystal form A” in each case. The “Crystal form after suspension” value in data set [3] (Ethanol:water (1:1)), in data set [3] (Ethyl acetate), in data set [3] (Isopropanol), in data set [3] (Methanol), in data set [3] (Methyl tert-butyl ether) and in data set [3] (Tetrahydrofuran) was “Crystal form A” each time. Also, the “Crystal form after suspension” value in data set [3] (n-Heptane) is recorded as “Crystal form A”. Moreover, the “Stability in different solvents” value in data set [3] (conclusion) was “good stability”. Besides, the Hygroscopicity classification result in data set [4] (25° C. and 80% RH) is listed as “no or almost no hygroscopicity”. The “Weight gain due to moisture absorption” value is recorded as 0.07% in data set [4] (25° C., 80% RH, compared to initial humidity of 30% (cycle 1 adsorption)) and 0.01% in data set [4] (25° C., humidity continued to rise to 95% (cycle 1 adsorption)). Further, the “Weight decrease of the sample” value in data set [4] (25° C., humidity continued to rise to 90%) is recorded as 0.15%. In addition, the “Crystal form before and after the DVS test (XRPD)” value in data set [4] (30-95-0-95% RH/25° C.) is “the crystal form did not change”. In addition, the “Crystal form (XRPD)” value is listed as “Crystal form A” in data set [5] (0 days); “Crystal form A” in data set [5] (High humidity (relative humidity 92.5%, open), 5 days); “Crystal form A” in data set [5] (High humidity (relative humidity 92.5%, open), 10 days); “Crystal form A” in data set [5] (High temperature (60° C., open), 5 days); “Crystal form A” in data set [5] (High temperature (60° C., open), 10 days); “Crystal form A” in data set [5] (Light (total illumination = 1.2 × 10^6 Lux · hr/near ultraviolet = 200 w · hr/m^2, open), 5 days). In addition, the “Crystal form (XRPD)” value in data set [5] (Light (total illumination = 1.2 × 10^6 Lux · hr/near ultraviolet = 200 w · hr/m^2, open), 10 days) is on record as “Crystal form A”. The “Stability under high temperature, high humidity, and strong light” value in data set [5] (conclusion) was “good stability”.
